Assay results reported in patent US20250051338A1, “TYK2 DEGRADERS AND USES THEREOF” (Kymera Therapeutics, Inc., priority 2021, published 2025).

How the values were obtained:
Format in all cases: cell-based
[1] = target: T1, TYK2 (Homo sapiens, UniProt P29597); test: TYK2 degradation MSD assay in human PBMC cells; set-up: endogenous in cells; host or cells: human PBMC; details: 4 to 24 hours incubation, read-out: TYK2 MSD DC50 rating in human PBMC
In short: (§1)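 MSD electrochemiluminescence readout of residual TYK2 in RIPA lysates after 4–24 h compound exposure at 37° C. Dosing: 9 concentrations, 1:3 steps, top 1 to 10 μM. DC50 fitted by four-parameter inhibitor vs. response regression.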

[2] = target: T1, TYK2; test: TYK2 degradation MSD assay in OCI-LY10 cells; set-up: endogenous in cells; host or cells: EBV-B cells; details: 4 to 24 hours incubation, read-out: TYK2 MSD DC50 rating in OCI-LY10
In short: as §1

[3] = target: T1, TYK2; test: TYK2 degradation MSD assay in EBV-B cells; set-up: endogenous in cells; host or cells: EBV-B cells; details: 4 to 24 hours incubation, read-out: TYK2 MSD DC50 rating in EBV-B
In short: as §1

T1 sequence (P29597 whole entry): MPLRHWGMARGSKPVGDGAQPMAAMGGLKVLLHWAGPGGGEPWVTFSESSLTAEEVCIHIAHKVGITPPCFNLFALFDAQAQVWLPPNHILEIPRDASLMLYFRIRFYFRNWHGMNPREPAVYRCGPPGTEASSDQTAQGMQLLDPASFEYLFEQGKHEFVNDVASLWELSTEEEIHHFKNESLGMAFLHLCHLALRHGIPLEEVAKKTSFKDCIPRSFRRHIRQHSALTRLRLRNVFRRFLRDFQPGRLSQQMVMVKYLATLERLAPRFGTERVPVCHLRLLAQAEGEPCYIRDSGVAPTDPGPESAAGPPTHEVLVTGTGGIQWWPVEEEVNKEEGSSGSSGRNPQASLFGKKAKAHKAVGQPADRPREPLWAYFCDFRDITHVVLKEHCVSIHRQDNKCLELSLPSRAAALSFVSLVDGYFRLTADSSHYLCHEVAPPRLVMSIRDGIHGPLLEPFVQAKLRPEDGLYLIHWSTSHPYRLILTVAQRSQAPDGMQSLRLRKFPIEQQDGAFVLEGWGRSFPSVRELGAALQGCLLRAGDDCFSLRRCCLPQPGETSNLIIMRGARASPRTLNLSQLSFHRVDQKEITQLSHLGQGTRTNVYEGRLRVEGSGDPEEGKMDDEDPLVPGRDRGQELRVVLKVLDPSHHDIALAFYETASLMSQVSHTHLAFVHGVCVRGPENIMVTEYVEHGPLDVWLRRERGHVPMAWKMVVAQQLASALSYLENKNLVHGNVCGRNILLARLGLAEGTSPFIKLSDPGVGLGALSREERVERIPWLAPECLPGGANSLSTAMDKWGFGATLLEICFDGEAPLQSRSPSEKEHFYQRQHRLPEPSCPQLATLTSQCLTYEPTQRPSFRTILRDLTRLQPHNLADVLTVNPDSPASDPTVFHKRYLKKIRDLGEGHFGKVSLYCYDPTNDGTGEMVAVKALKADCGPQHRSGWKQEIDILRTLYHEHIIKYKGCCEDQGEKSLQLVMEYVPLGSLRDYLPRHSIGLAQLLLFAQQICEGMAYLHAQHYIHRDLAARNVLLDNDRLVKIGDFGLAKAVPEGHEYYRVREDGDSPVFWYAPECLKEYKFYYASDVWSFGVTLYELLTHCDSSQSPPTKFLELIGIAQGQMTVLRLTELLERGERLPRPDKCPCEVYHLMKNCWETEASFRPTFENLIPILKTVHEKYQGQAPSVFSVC

| DC50 [1] [nM] | DC50 [2] [nM] | DC50 [3] [nM] | Structure (SMILES) |
| --- | --- | --- | --- |
| > 100 | < 1 | > 100 | CNc1cc(Nc2cccn(-c3ccc(C(=O)N4CC(N5CCN(c6ccc7c(c6)n(C)c(=O)n7C6CCC(=O)NC6=O)CC5)C4)cn3)c2=O)nn2c(C(=O)N[C@@H]3C[C@@H]3F)cnc12 (stereo partly drawn) [Example K419] |
| > 100 | > 100 | > 100 | Cn1c(=O)n(C2CCC(=O)NC2=O)c2ccc(-c3ccc(N4CCN(Cc5ccc(-c6cccc(Nc7cc(C8CC8)c8ncc(C(=O)N[C@@H]9C[C@@H]9F)n8n7)c6)nc5)CC4)cc3)cc21 (stereo partly drawn) [Example K484] |
| > 100 | 1 to 10 | > 100 | CNc1cc(Nc2cc(F)cc(-c3ccc(CN4CCN(c5ccc(-c6ccc7c(c6)n(C)c(=O)n7C6CCC(=O)NC6=O)cc5)CC4)cn3)c2OC)nn2c(C(=O)N[C@@H]3C[C@@H]3F)cnc12 (stereo partly drawn) [Example K577] |
| < 1 | > 100 | > 100 | CNc1cc(Nc2cccn(-c3ccc(C(=O)N(C)Cc4ccc(-c5ccc6c(c5)n(C)c(=O)n6C5CCC(=O)NC5=O)cn4)cn3)c2=O)nn2c(C(=O)N[C@@H]3C[C@@H]3F)cnc12 (stereo partly drawn) [Example K387] |
| > 100 | < 1 | > 100 | CNc1cc(Nc2cccc(-c3ccc(CN4CCN(c5cccc6c5n(C)c(=O)n6C5CCC(=O)NC5=O)CC4)cn3)c2)nn2c(C(=O)N[C@@H]3C[C@@H]3F)cnc12 (stereo partly drawn) [Example K460] |
| > 100 | > 100 | < 1 | CNc1cc(Nc2cccn(-c3ccc(C(=O)N4CCN([C@H]5CC[C@@H](c6ccc(-c7ccc8c(c7)n(C)c(=O)n8C7CCC(=O)NC7=O)cc6)CC5)CC4)cn3)c2=O)nn2c(C(=O)N[C@@H]3C[C@@H]3F)cnc12 (stereo partly drawn) [Example K377] |
| > 100 | > 100 | > 100 | CNc1cc(Nc2cccn(-c3cc(C(=O)NCCOCCOCCc4cccc5c4n(C)c(=O)n5C4CCC(=O)NC4=O)ccn3)c2=O)nn2c(C(=O)N[C@@H]3C[C@@H]3F)cnc12 (stereo partly drawn) [Example K238] |
| > 100 | > 100 | > 100 | CNc1cc(Nc2ccccc2C(=O)NCCCCc2ccc3c(c2)n(C)c(=O)n3C2CCC(=O)NC2=O)nn2c(C(=O)N[C@@H]3C[C@@H]3F)cnc12 (stereo partly drawn) [Example K252] |
| > 100 | > 100 | > 100 | CNc1cc(Nc2cccn(-c3ccc(C(=O)N4CCC5(CCCN(CCc6ccc7c(c6)n(C)c(=O)n7C6CCC(=O)NC6=O)C5)C4)cn3)c2=O)nn2c(C(=O)N[C@@H]3C[C@@H]3F)cnc12 (stereo partly drawn) [Example K426] |
| > 100 | < 1 | > 100 | CNc1cc(Nc2cccc(-c3ccc(CN4CCN(c5ccc(-c6ccc7c(c6)n(C)c(=O)n7C6CCC(=O)NC6=O)cc5)CC4)cn3)c2F)nn2c(C(=O)N[C@@H]3C[C@@H]3F)cnc12 (stereo partly drawn) [Example K563] |
| > 100 | < 1 | > 100 | CNc1cc(Nc2cccc(-c3ccc(CN4CCN(c5ccc(-c6ccc7c(c6)n(C)c(=O)n7C6CCC(=O)NC6=O)cc5)CC4)cn3)c2Cl)nn2c(C(=O)N[C@@H]3C[C@@H]3F)cnc12 (mixture of isomers) [Example K541] |
| < 1 | > 100 | > 100 | CNc1cc(Nc2cccc(C(=O)NCCCCCCc3cccc4c3n(C)c(=O)n4C3CCC(=O)NC3=O)c2)nn2c(C(=O)N[C@@H]3C[C@@H]3F)cnc12 (stereo partly drawn) [Example K250] |
| > 100 | > 100 | > 100 | CNc1cc(Nc2cccc(C3CCN(CC4CCN(c5ccc(-c6cccc7c6n(C)c(=O)n7C6CCC(=O)NC6=O)cc5)CC4)CC3)c2OC)nn2c(C(=O)N[C@@H]3C[C@@H]3F)cnc12 (mixture of isomers) [Example K538] |
| > 100 | 1 to 10 | > 100 | CNc1cc(Nc2cccc(-c3ccc(CN4CCN(c5ccc(-c6ccc7c(c6)n(C)c(=O)n7C6CCC(=O)NC6=O)cc5)CC4)cn3)c2)nn2c(C(=O)NC3CCC3)cnc12 (stereo not drawn) [Example K483] |
| > 100 | 1 to 10 | > 100 | CNc1cc(N2CCc3c(N4CCC(CN5CCC(C#Cc6cccc7c6n(C)c(=O)n7C6CCC(=O)NC6=O)CC5)CC4)cccc32)nn2c(C(=O)N[C@@H]3C[C@@H]3F)cnc12 (stereo partly drawn) [Example K635] |
| > 100 | > 100 | > 100 | Cn1c(=O)n(C2CCC(=O)NC2=O)c2ccc(C3CCN(CCCNc4cc(Nc5cccn(-c6ccccn6)c5=O)nn5c(C(=O)N[C@@H]6C[C@@H]6F)cnc45)CC3)cc21 (stereo partly drawn) [Example K366] |
| > 100 | < 1 | > 100 | CNc1cc(Nc2cccc(N3CCC(CN4CCN(c5ccc(-c6ccc7c(c6)n(C)c(=O)n7C6CCC(=O)NC6=O)cc5)CC4)CC3)c2)nn2c(C(=O)N[C@@H]3C[C@@H]3F)cnc12 (stereo partly drawn) [Example K518] |
| > 100 | < 1 | > 100 | CNc1cc(Nc2cccc(CN3CCN(c4ccc(-c5ccc6c(c5)n(C)c(=O)n6C5CCC(=O)NC5=O)cc4)CC3)c2Cl)nn2c(C(=O)N[C@@H]3C[C@@H]3F)cnc12 (stereo partly drawn) [Example K564] |
| > 100 | < 1 | > 100 | CNc1cc(Nc2cccc(CN3CCC(CN4CCN(c5ccc6c(c5)n(C)c(=O)n6C5CCC(=O)NC5=O)CC4)CC3)c2)nn2c(C(=O)N[C@@H]3C[C@@H]3F)cnc12 (stereo partly drawn) [Example K490] |
| > 100 | < 1 | > 100 | CNc1cc(Nc2cccc(-c3ccc(CN4CCC(N5CCN(c6ccc7c(c6)n(C)c(=O)n7C6CCC(=O)NC6=O)CC5)C(F)(F)C4)cn3)c2OC)nn2c(C(=O)NC3CC3F)cnc12 (stereo not drawn) [Example K660] |

The next lines start with the compound.

| Structure (SMILES) | DC50 [1] [nM] | DC50 [2] [nM] | DC50 [3] [nM] |
| --- | --- | --- | --- |
| CNc1cc(N2CCc3c(N4CCC(CC5CC6(CCN(C(=O)c7ccc(Cl)c(N8CCC(=O)NC8=O)c7)CC6)C5)CC4)cccc32)nn2c(C(=O)N[C@@H]3C[C@@H]3F)cnc12 [Example K568] | > 100 | 1 to 10 | > 100 |
| CNc1cc(N2CCc3c(-c4ccc(CN5CC6(CCN(C(=O)c7ccc(Cl)c(N8CCC(=O)NC8=O)c7)CC6)C5)cn4)cccc32)nn2c(C(=O)N[C@@H]3C[C@@H]3F)cnc12 [Example K498] | > 100 | < 1 | < 1 |
| Cn1c(=O)n(C2CCC(=O)NC2=O)c2cccc(CCOCCOCCOCCOCCOCCOCCNc3cc(Nc4cccn(-c5ccccn5)c4=O)nn4c(C(=O)N[C@@H]5C[C@@H]5F)cnc34)c21 (stereo partly drawn) [Example K213] | > 100 | > 100 | > 100 |
| CNC(=O)c1cnc(Nc2cc(C(=O)NCCCCCCCCc3ccc4c(c3)n(C)c(=O)n4C3CCC(=O)NC3=O)ccn2)cc1Nc1cccc(-c2ncc(F)cn2)c1OC (stereo not drawn) [Example K129] | < 1 | > 100 | 1 to 10 |
| CNc1cc(Nc2cccn(-c3ccc(C(=O)NCCOCCOCCOCCOCCc4cccc5c4n(C)c(=O)n5C4CCC(=O)NC4=O)cn3)c2=O)nn2c(C(=O)N[C@@H]3C[C@@H]3F)cnc12 (stereo partly drawn) [Example K218] | 10 to 100 | > 100 | > 100 |
| CNC(=O)c1cnc(NC(=O)NCCCCCCCc2ccc3c(c2)n(C)c(=O)n3C2CCC(=O)NC2=O)cc1Nc1cccc(-c2ncc(F)cn2)c1OC (stereo not drawn) [Example K188] | < 1 | > 100 | > 100 |
| CNc1cc(-c2cnn(C3CN(C(=O)NCCCCCCCCc4ccc5c(c4)n(C)c(=O)n5C4CCC(=O)NC4=O)C3)c2)nn2c(C(=O)NC3C[C@@H]3F)cnc12 (stereo partly drawn) [Example K318] | > 100 | > 100 | > 100 |
| CNC(=O)c1cnc(Nc2ccc(CN3CCC(N4CC(c5ccc6c(c5)n(C)c(=O)n6C5CCC(=O)NC5=O)C4)CC3)cn2)cc1Nc1cccc(-c2ncc(F)cn2)c1OC (stereo not drawn) [Example K140] | 1 to 10 | > 100 | < 1 |
| CNc1cc(Nc2cccn(-c3ccc(C(=O)NCCCCCCCCc4cncc(N5CCC[C@H](C(=O)Nc6ccc(=O)n(CC(=O)O)c6)C5)c4)cn3)c2=O)nn2c(C(=O)N[C@@H]3C[C@@H]3F)cnc12 [Example K571] | > 100 | > 100 | > 100 |
| Cc1cc(C)cc(Nc2cc(NCCCCc3ccc4c(c3)n(C)c(=O)n4C3CCC(=O)NC3=O)c3ncc(C(=O)N[C@@H]4C[C@@H]4F)n3n2)c1 (stereo partly drawn) [Example K402] | > 100 | > 100 | > 100 |
| Cn1c(=O)n(C2CCC(=O)NC2=O)c2ccc(-c3ccc(N4CCN(Cc5ccc(-c6cccc(Nc7ccc8ncc(C(=O)NC9CC9)n8n7)c6)nc5)CC4=O)nc3)cc21 (stereo not drawn) [Example K459] | > 100 | > 100 | > 100 |
| O=C1CCN(c2cnc3cc(CCOCCOCCOCCOCCNc4cc(Nc5cccn(-c6ccccn6)c5=O)nn5c(C(=O)N[C@@H]6C[C@@H]6F)cnc45)ccn23)C(=O)N1 [Example K468] | 10 to 100 | > 100 | > 100 |
| Cn1c(=O)n(C2CCC(=O)NC2=O)c2ccc(-c3ccc(N4CC5(CN(Cc6ccc(-c7cccc(Nc8ccc9ncc(C(=O)NC%10CC%10)n9n8)c7)nc6)C5)C4)cc3)cc21 (stereo not drawn) [Example K515] | > 100 | 1 to 10 | 1 to 10 |
| CNC(=O)c1cnc(Nc2cc(C(=O)NCCCCCCCCc3cccc4c3n(C)c(=O)n4C3CCC(=O)NC3=O)ccn2)cc1Nc1cccc(-c2ncc(F)cn2)c1OC (stereo not drawn) [Example K130] | 1 to 10 | > 100 | 1 to 10 |
| CNC(=O)c1cnc(Nc2ccc(CN3CCC(c4ccc5c(c4)n(C)c(=O)n5C4CCC(=O)NC4=O)C3)cn2)cc1Nc1cccc(-c2ncc(F)cn2)c1OC (stereo not drawn) [Example K166] | > 100 | > 100 | < 1 |
